Reference: the CheMixHub viscosity set
± gives the uncertainty stated by the source.

Test: xn = mol fraction of the nth substance listed

CCCCOC(=O)c1ccccc1C(=O)OCCCC + CCCCO
303.15 K, 101.33 kPa
Settings | viscosity [mPa·s]
x1 = 0.1016 | 2.585 ± 0.015
x1 = 0.1991 | 3.095 ± 0.018
x1 = 0.2997 | 3.757 ± 0.022
x1 = 0.4016 | 4.553 ± 0.026
x1 = 0.5004 | 5.431 ± 0.031
x1 = 0.5969 | 6.463 ± 0.035
x1 = 0.6966 | 7.645 ± 0.04
x1 = 0.8044 | 9.216 ± 0.047
x1 = 0.8662 | 10.27 ± 0.052

CCCCN(CCCC)CCCC + CCC(C)O
303.15 K, 101 kPa
Settings | viscosity [mPa·s]
x1 = 0.01127 | 2.456 ± 0.016
x1 = 0.0218 | 2.439 ± 0.016
x1 = 0.03265 | 2.423 ± 0.016
x1 = 0.04214 | 2.409 ± 0.016
x1 = 0.04957 | 2.399 ± 0.016
x1 = 0.05793 | 2.387 ± 0.016
x1 = 0.06851 | 2.372 ± 0.016
x1 = 0.07785 | 2.359 ± 0.016
x1 = 0.08821 | 2.345 ± 0.016

[2H]O[2H] + C1COCCO1
viscosity [mPa·s], 101 kPa
Settings | 303.1 K | 313.1 K | 323.1 K
x1 = 0.1561 | 1.112 ± 0.018 | 0.944 ± 0.016 | 0.817 ± 0.014
x1 = 0.1831 | 1.154 ± 0.018 | 0.972 ± 0.016 | 0.831 ± 0.014
x1 = 0.3467 | 1.317 ± 0.02 | 1.092 ± 0.017 | 0.918 ± 0.015
x1 = 0.522 | 1.585 ± 0.024 | 1.289 ± 0.02 | 1.06 ± 0.017
x1 = 0.5977 | 1.728 ± 0.025 | 1.378 ± 0.021 | 1.128 ± 0.018
x1 = 0.6534 | 1.836 ± 0.027 | 1.447 ± 0.022 | 1.172 ± 0.018
x1 = 0.7431 | 1.968 ± 0.029 | 1.529 ± 0.023 | 1.233 ± 0.019
x1 = 0.8126 | 1.959 ± 0.029 | 1.52 ± 0.023 | 1.213 ± 0.019
x1 = 0.8683 | 1.754 ± 0.026 | 1.367 ± 0.021 | 1.098 ± 0.017
x1 = 0.9108 | 1.528 ± 0.023 | 1.199 ± 0.019 | 0.97 ± 0.016
x1 = 0.9466 | 1.321 ± 0.021 | 1.047 ± 0.017 | 0.853 ± 0.015
x1 = 0.9747 | 1.131 ± 0.018 | 0.905 ± 0.015 | 0.742 ± 0.013

CCCCC(C)O (stereo not given) + CN(C)C=O
viscosity [mPa·s], 101 kPa
Settings | x2 = 0.1088 | x2 = 0.1532 | x2 = 0.2402 | x2 = 0.3448 | x2 = 0.441 | x2 = 0.5601 | x2 = 0.6546 | x2 = 0.7434 | x2 = 0.843 | x2 = 0.9374
298.15 K | 3.26 ± 0.07 | 3.03 ± 0.07 | 2.7 ± 0.1 | 2.41 ± 0.05 | 2.17 ± 0.05 | 1.87 ± 0.04 | 1.63 ± 0.04 | 1.4 ± 0.1 | 1.17 ± 0.03 | 0.97 ± 0.02
303.15 K | 2.67 ± 0.06 | 2.49 ± 0.06 | 2.23 ± 0.05 | 1.99 ± 0.05 | 1.79 ± 0.04 | 1.56 ± 0.04 | 1.39 ± 0.03 | 1.23 ± 0.03 | 1.05 ± 0.02 | 0.87 ± 0.02
308.15 K | 2.19 ± 0.05 | 2.01 ± 0.05 | 1.8 ± 0.1 | 1.61 ± 0.04 | 1.47 ± 0.03 | 1.3 ± 0.1 | 1.18 ± 0.03 | 1.06 ± 0.02 | 0.93 ± 0.02 | 0.8 ± 0.1
313.15 K | 1.7 ± 0.1 | 1.53 ± 0.04 | 1.36 ± 0.03 | 1.23 ± 0.03 | 1.13 ± 0.03 | 1.03 ± 0.03 | 0.96 ± 0.02 | 0.89 ± 0.02 | 0.81 ± 0.02 | 0.73 ± 0.02

CCCCOC(=O)c1ccccc1C(=O)OCCCC + CCCCCCCCCCO
303.15 K, 101.33 kPa
Settings | viscosity [mPa·s]
x1 = 0.1004 | 8.572 ± 0.044
x1 = 0.1995 | 8.061 ± 0.042
x1 = 0.3035 | 7.851 ± 0.041
x1 = 0.4004 | 7.91 ± 0.041
x1 = 0.4902 | 8.075 ± 0.042
x1 = 0.5977 | 8.479 ± 0.044
x1 = 0.6985 | 9.095 ± 0.047
x1 = 0.7997 | 9.985 ± 0.05
x1 = 0.8948 | 11.18 ± 0.056

CN(C)c1ccccc1 + CC(=O)c1ccccc1
viscosity [mPa·s], 101 kPa
Settings | 303.15 K | 308.15 K
x1 = 0.0856 | 1.505 ± 0.054 | 1.398 ± 0.05
x1 = 0.1502 | 1.495 ± 0.053 | 1.387 ± 0.05
x1 = 0.2141 | 1.48 ± 0.053 | 1.376 ± 0.049
x1 = 0.2852 | 1.461 ± 0.052 | 1.361 ± 0.049
x1 = 0.3521 | 1.442 ± 0.051 | 1.346 ± 0.048
x1 = 0.4201 | 1.42 ± 0.051 | 1.328 ± 0.048
x1 = 0.5026 | 1.392 ± 0.05 | 1.305 ± 0.047
x1 = 0.5892 | 1.362 ± 0.049 | 1.279 ± 0.046
x1 = 0.6625 | 1.335 ± 0.048 | 1.254 ± 0.045
x1 = 0.7211 | 1.313 ± 0.047 | 1.234 ± 0.045
x1 = 0.7908 | 1.284 ± 0.046 | 1.207 ± 0.044
x1 = 0.8625 | 1.253 ± 0.045 | 1.177 ± 0.043
x1 = 0.9204 | 1.222 ± 0.044 | 1.151 ± 0.042

CCC(C)(C)O + CCCCCO
viscosity [mPa·s], 101 kPa
Settings | 298.15 K | 318.15 K
x2 = 0.051 | 3.666 ± 0.095 | 1.715 ± 0.045
x2 = 0.1017 | 3.812 ± 0.099 | 1.782 ± 0.047
x2 = 0.2023 | 4.096 ± 0.11 | 1.867 ± 0.049
x2 = 0.3041 | 4.309 ± 0.11 | 1.974 ± 0.052
x2 = 0.4034 | 4.432 ± 0.12 | 2.058 ± 0.054
x2 = 0.4972 | 4.456 ± 0.12 | 2.122 ± 0.055
x2 = 0.5939 | 4.415 ± 0.12 | 2.167 ± 0.057
x2 = 0.6991 | 4.251 ± 0.11 | 2.195 ± 0.057
x2 = 0.8003 | 4.112 ± 0.11 | 2.187 ± 0.057
x2 = 0.9012 | 3.939 ± 0.1 | 2.174 ± 0.057
x2 = 0.9496 | 3.831 ± 0.1 | 2.161 ± 0.056

CCCCN(CCCC)CCCC + CC(C)CC(C)(C)C
viscosity [mPa·s], 101 kPa
Settings | x1 = 0.1106 | x1 = 0.2474 | x1 = 0.3947 | x1 = 0.4958 | x1 = 0.5982 | x1 = 0.793 | x1 = 0.8938
303.15 K | 0.505 ± 0.0057 | 0.5839 ± 0.0061 | 0.6783 ± 0.0066 | 0.7486 ± 0.007 | 0.8256 ± 0.0075 | 0.9844 ± 0.0085 | 1.072 ± 0.009
313.15 K | 0.4465 ± 0.0054 | 0.5109 ± 0.0057 | 0.5884 ± 0.0062 | 0.6462 ± 0.0065 | 0.7101 ± 0.0068 | 0.8423 ± 0.0076 | 0.9171 ± 0.008
